Reference: publication PMC6271529, “Studies on the Anticonvulsant Activity and Influence on GABA-ergic Neurotransmission of 1,2,4-Triazole-3-thione-Based Compounds” (Molecules, 2014)
Read-outs that look alike come from different tables or passages of the source.

Key:
[1] = system: maximal electroshock-induced seizures; test: Maximal electroshock-induced seizure (MES) test in mice; assay type: in vivo, mouse; details: for p/t, number of animals protected against MES-induced seizures / number tested / responders at 300 mg/kg: 300 mg/kg i.p.; for responders at 300 mg/kg / ED50: Mus musculus, ip; for responders at 300 mg/kg: read-out: percent of animals protected against MES-induced seizures; for ED50: read-out: ED50 ± S.E. (MES test); for PI (TD50/ED50): protective index; for onset of action: significant protection as early as 15 min after parenteral administration
Procedure: Additionally, all efforts were made to minimize animal suffering and to use only the number of animals necessary to produce reliable scientific data.
In the initial stage of the study, groups of eight mice were supplied with the compounds (administered intraperitoneally) in a dose of 300 mg/kg and then exposed to electrical impulse at fixed intervals (15, 30, 60, 120 min).
Each mouse was used only once.
Fresh drug solutions were prepared on each day of experimentation and administered at 15, 30, 60 and 120 min. before the initiation of maximal electroconvulsions. Electroconvulsions were produced by a current (0.2 s stimulus duration; 500 V, 50 Hz, fixed current intensity of 25 mA) delivered via ear-clip electrodes by a Rodent Shocker generator (constant-current stimulator Type 221, Hugo Sachs Elektronik, Freiburg, Germany). The criterion for the occurrence of seizure activity was the tonic hind limb extension. The animals were administered with a constant dose of 300 mg/kg of each of the examined compounds and were subjected to MES-induced seizures. […] The animals were administered with different doses of the tested compounds so as to obtain a variable percentage of protection against maximal electroconvulsions, allowing the construction of dose-response relationship lines for each examined compound administered i.p. at various pretreatment times, according to Litchfield and Wilcoxon. Each ED50 value represents the dose of the studied compounds that is required to protect 50% of the animals tested against MES-induced seizures.

[2] = system: benzodiazepine (BDZ)-binding sites; test: Radioligand binding assay, [3H]flunitrazepam, rat cerebral cortex; details: compound 1 × 10^−6 M;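 also: low percentages indicate weak binding of the compound to the site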
Procedure: (§1) Binding experiments were conducted in 96-well microplates in a total volume of 200 μL of appropriate buffer. The reaction mixture included 50 μL solution of test compound, 50 μL of radioligand, and […] the tissue suspension. Rat cerebral cortex was used for each receptor. The radioactivity was measured in MicroBeta TriLux 1450-liquid scintillation counter (PerkinElmer, Waltham, MA, USA). Radioligand binding data were analyzed using iterative curve fitting routines (GraphPAD/Prism, Version 3.0, San Diego, CA, USA). Ki values were calculated from the Cheng and Prusoff equation [36].

GABAA receptors = test: Radioligand binding assay, [3H]muscimol, rat cerebral cortex; details: compound 1 × 10^−6 M, [3H]muscimol, rat cerebral cortex;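 also: low percentages indicate weak binding of the compound to the receptor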
Procedure: as §1, with “The radioactivity was measured in MicroBeta TriLux 1450-liquid scintillation counter (PerkinElmer, Waltham, MA, USA).” left out

[3] = pretreatment time 120 min, mice
[4] = 0.25 h, pretreatment time 15 min, mice
[5] = 0.5 h, pretreatment time 30 min, mice
[6] = 1 h, pretreatment time 60 min, mice
[7] = 2 h, pretreatment time 120 min, mice
[8] = chimney TD50 / MES ED50, pretreatment time 15 min
[9] = chimney TD50 / MES ED50, pretreatment time 30 min
[10] = chimney TD50 / MES ED50, pretreatment time 60 min
[11] = chimney TD50 / MES ED50, pretreatment time 120 min

| Structure (SMILES) | p/t, number of animals protected against MES-induced seizures / number tested ([1]; pretreatment time 15 min, mice) | p/t, number of animals protected against MES-induced seizures / number tested ([1]; pretreatment time 30 min, mice) | p/t, number of animals protected against MES-induced seizures / number tested ([1]; pretreatment time 60 min, mice) | p/t, number of animals protected against MES-induced seizures / number tested [1, 3] | responders at 300 mg/kg [1, 4] [%] | responders at 300 mg/kg [1, 5] [%] | responders at 300 mg/kg [1, 6] [%] | responders at 300 mg/kg [1, 7] [%] | Percent of Specific Binding, BDZ [2] [%] | melting point [°C] | Percent of Specific Binding, GABAA (GABAA receptors) [%] | ED50 ([1]; pretreatment time 15 min, mice) [mg/kg] | ED50 ([1]; pretreatment time 30 min, mice) [mg/kg] | ED50 ([1]; pretreatment time 60 min, mice) [mg/kg] | ED50 [1, 3] [mg/kg] | PI (TD50/ED50) [1, 8] | PI (TD50/ED50) [1, 9] | PI (TD50/ED50) [1, 10] | PI (TD50/ED50) [1, 11] | onset of action ([1]; MES, mice) | also measured |
| --- | --- | --- | --- | --- | --- | --- | --- | --- | --- | --- | --- | --- | --- | --- | --- | --- | --- | --- | --- | --- | --- |
| CSc1ccc(-n2c(-c3ccc(Cl)cc3)n[nH]c2=S)cc1 [Compound 17a, 5-(4-Chlorophenyl)-4-[4-(methylsulfanyl)phenyl]-2,4-dihydro-3H-1,2,4-triazole-3-thione] | 0/8 | 0/8 | 1/8 | 0/8 | 0 | 0 | 12.5 | 0 | 6 | 214 to 216 | 21 | – | – | – | – | – | – | – | – | – | – |
| S=c1[nH]nc(-c2ccc(Cl)cc2)n1-c1ccccc1Br [Compound 15a, 4-(2-Bromophenyl)-5-(4-chlorophenyl)-2,4-dihydro-3H-1,2,4-triazole-3-thione] | 6/8 | 8/8 | 8/8 | 7/8 | 75 | 100 | 100 | 87.5 | 21 | 250 to 252 | 8 | 183 ± 25.1 | 105 ± 16.5 | 137 ± 19.9 | 176 ± 25 | 1.5 | 2.4 | 1.8 | 1.4 | quick onset of action | – |
| S=c1[nH]nc(-c2ccc(Cl)cc2)n1-c1ccc(Br)cc1 [Compound 16a, 4-(4-Bromophenyl)-5-(4-chlorophenyl)-2,4-dihydro-3H-1,2,4-triazole-3-thione] | 5/8 | 7/8 | 8/8 | 8/8 | 62.5 | 87.5 | 100 | 100 | 24 | – | 17 | 272 ± 21.4 | 182 ± 44.3 | 153 ± 23.5 | 141 ± 25.1 | 1.6 | 2.6 | 3.0 | 2.9 | quick onset of action | time to peak of the anticonvulsant action ([1]; after i.p. administration, MES, mice): 120 min |
| S=c1[nH]nc(-c2cccc(Cl)c2)n1-c1ccccc1Br [Compound 5a, 4-(2-Bromophenyl)-5-(3-chlorophenyl)-2,4-dihydro-3H-1,2,4-triazole-3-thione] | 0/8 | 0/8 | 1/8 | 1/8 | 0 | 0 | 12.5 | 12.5 | 12 | – | 2 | – | – | – | – | – | – | – | – | – | – |
| Cc1ccc(-n2c(-c3cccc(Cl)c3)nn(CN3CCN(c4ccc(F)cc4)CC3)c2=S)cc1 [Compound 24a, 5-(3-Chlorophenyl)-2-{[4-(4-fluorophenyl)piperazin-1-yl]methyl}-4-(4-methylphenyl)-2,4-dihydro-3H-1,2,4-triazole-3-thione] | 0/8 | 0/8 | 0/8 | 0/8 | 0 | 0 | 0 | 0 | 13 | – | 21 | – | – | – | – | – | – | – | – | – | – |
